These results are taken from ChEMBL document CHEMBL1139116, “Discovery and SAR of isonicotinamide BACE-1 inhibitors that bind beta-secretase in a N-terminal 10s-loop down conformation” (Bioorg Med Chem Lett, 2007).

The data set in a line: Partition coefficient, log P of the compound. It counts as physicochemical. The conditions noted are these: octanol/water.

One may read the logP as the decadic logarithm of the partition coefficient of the neutral form, usually between octanol and water. A low value points to a more hydrophilic compound. In turn, `CC1CC1CNc1cc(C(=O)N[C@@H](Cc2ccccc2)[C@@H](N)CCC(F)(F)F)cc(N(C)S(C)(=O)=O)n1` (mixture of isomers) had a logP of more than 3.5.

Take `CCCC[C@H](N)[C@H](Cc1ccccc1)NC(=O)c1cc(NCC2CC2C)nc(N(C)S(C)(=O)=O)c1` (mixture of isomers): the logP is more than 2.51.
